Source: US11884627B2, “Compounds and compositions for treating conditions associated with LPA receptor activity” (Lhotse Bio, Inc., priority 2022, dated 2024)
pIC50: −log10 of the molar value. Like-named read-outs stand apart in the source and are kept apart here.

Molecular target: T1, human LPA1 (Homo sapiens, UniProt Q92633)
T1 construct: expressed in transfected cells; host or cells: CHO-K1
Experiment: In vitro LPA1 calcium flux antagonist assay - Bioduro protocol
Format: cell-based
Settings: CHO-K1 cells overexpressing human LPA1 and G15a, LPA challenge at EC80
Protocol: In Vitro LPA1 Calcium Flux Antagonist Assay—Bioduro Protocol
CHO-K1 cells overexpressing human LPA1 and G15a were seeded at a total volume of 20 μL (15000 cells/well) into Matrigel pre-coated 384-well plates (corning −3764) and incubated at 37° C. After overnight incubation, the cells were serum starved for 4 h. Assays were performed in dye loading buffer containing 1× Fluo-8 AM (AAT Bioquest, 21080) and 2.5 mM probenecid (Thermo Fisher, 36400) in HBSS/20 mM Hepes. After cell starvation, the medium was replaced with 20 μL of dye loading buffer and incubated at 37° C., for 30 min. Then 5 μL of 5× compound titrated in dye loading buffer was added to the cells and incubated for 30 min followed by LPA challenge at EC80. Calcium mobilization was measured on a FLIPR Tetra (MSD). For LPA EC80 determination, starved cells were incubated with 20 μL of dye loading buffer for 1 h, then 5 μL of 5×LPA titrated in dye loading buffer was added to the cells. Calcium signals induced by LPA was monitors on a FLIPR.
Percentage inhibition is calculated using the following formula: % Inhibition=100%×(1−(mean RFU of test sample−mean RFU of DMSO)/(mean RFU of LPA control−mean RFU of DMSO)).
Table B3 and Table B4 show the biological activity of compounds in in vitro LPA1 Calcium flux antagonist assay—Bioduro protocol.

[1] = calcium mobilization on FLIPR Tetra, read-out: IC50
[2] = Table B3, read-out: Activity (IC50 class)

T1 sequence (Q92633 whole entry): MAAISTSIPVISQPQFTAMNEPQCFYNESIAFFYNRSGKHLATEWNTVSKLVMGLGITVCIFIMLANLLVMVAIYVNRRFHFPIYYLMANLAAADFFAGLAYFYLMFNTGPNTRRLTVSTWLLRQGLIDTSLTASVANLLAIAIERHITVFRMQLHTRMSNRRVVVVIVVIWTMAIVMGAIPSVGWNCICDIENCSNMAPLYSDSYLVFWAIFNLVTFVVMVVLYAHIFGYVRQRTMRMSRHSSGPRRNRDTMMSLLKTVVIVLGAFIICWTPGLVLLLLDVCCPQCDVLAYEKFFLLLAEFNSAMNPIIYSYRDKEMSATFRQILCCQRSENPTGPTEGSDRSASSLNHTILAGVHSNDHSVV

pIC50 [1]	pIC50 [2]	Structure (SMILES)
7.43	> 7.00	COc1cc(-c2ccc(NC3(C(=O)O)CCOCC3)cc2COC2CC2)c(C(F)F)c(OC)n1 [Compound 314]
7.45	> 7.00	COc1cc(-c2ccc(NC3(C(=O)O)C[C@@H]3C)cc2COC2Cc3ccccc3C2)cc(OC)c1C (stereo partly drawn) [Compound 119, (2S)-1-((2-(((2,3-dihydro-1H-inden-2-yl)oxy)methyl)-3′,5′-dimethoxy-4′-methyl-[1,1′-biphenyl]-4-yl)amino)-2-methylcyclopropane-1-carboxylic acid]
7.53	> 7.00	COc1cc(OC)c(Cl)c(-c2c(F)cc(NC3(C(=O)O)CCOCC3)cc2COC2CCCC2)c1 [Compound 174]
8.21	> 7.00	CCOc1cc(OC)cc(-c2ccc(NC3(C(=O)O)CCC(F)(F)CC3)cc2COC2CC2)c1F [Compound 388]
7.44	> 7.00	CCNc1cccc(-c2ccc(NC3(C(=O)O)CCOCC3)cc2COC2CCCC2)c1F [Compound 278, 4-((2-((cyclopentyloxy)methyl)-3′-(ethylamino)-2′-fluoro-[1,1′-biphenyl]-4-yl)amino)tetrahydro-2H-pyran-4-carboxylic acid]
7.90	> 7.00	COc1cc(-c2ccc(NC3(C(=O)O)CC(OC)C3)cc2COC2CCCC2)c(C)c(OC)c1C (stereo not shown) [Compound 197]
7.42	> 7.00	COc1cc(-c2c(C)cc(NC3(C(=O)O)CCOCC3)cc2CCC2CCOC2)cc(OC)c1C (stereo not shown) [Compound 309]
7.56	> 7.00	COc1cc(-c2ccc(NC3(C(=O)O)CCOCC3)cc2COC2Cc3ccccc3C2)cc(OC)c1C(C)O (stereo not shown) [Compound 135]
< 5.00	< 6.00	COC(=O)N1CCCC(Nc2cc(C)c(-c3cc(OC)cc(OC)c3)c(COC3CCCC3)c2)(C(=O)O)C1 (stereo not shown) [Compound 211]
8.36	> 7.00	Cc1c(OC2CC2)cccc1-c1ccc(NC2(C(=O)O)CCC(F)(F)CC2)cc1COC1CC1 [Compound 387]
7.52	> 7.00	CCOc1cc(OC)cc(-c2ccc(NC3(C(=O)O)CCCCC3)cc2COC2CC2)c1F [Compound 357]
9.20	> 7.00	CCOc1cccc(-c2ccc(NC3(C(=O)O)CCC(F)(F)CC3)cc2COC2CC2)c1Cl [Compound 385]
6.60	6.00 to 7.00	CCOC(=O)N1CCC(Nc2cc(C)c(-c3cc(OC)cc(OC)c3)c(COC3CCCC3)c2)(C(=O)O)CC1 [Compound 155]
8.16	> 7.00	CCOc1cccc(-c2ccc(NC3(C(=O)O)CCOCC3)cc2CCC2CCCC2)c1F [Compound 272]
7.61	> 7.00	CCOc1cccc(-c2ccc(OC3(C(=O)O)CCC3)cc2COC2CC2)c1C(F)F [Compound 375]
9.10	> 7.00	CCOc1cccc(-c2ccc(NC3(C(=O)O)CCC(F)(F)CC3)cc2COC2CC2)c1C(F)F [Compound 384]
6.95	6.00 to 7.00	CCOc1c(C)ncc(-c2ccc(NC3(C(=O)O)CC(F)(F)C3)cc2COC2CC2)c1C [Compound 414]
5.90	< 6.00	COc1cc(-c2ccc(NC3(C(=O)O)CCC(OC)CC3)cc2COC2CCCC2)cc(OC)c1C (stereo not shown) [Compound 205]
6.86	6.00 to 7.00	CCOc1cc(OC)c(F)c(-c2ccc(NC3(C(=O)O)CCOCC3)cc2COC2CCCC2)c1 [Compound 297]
6.91	6.00 to 7.00	CCCc1cccc(-c2ccc(NC3(C(=O)O)CCOCC3)cc2COC2CC2)c1F [Compound 326]
7.07	> 7.00	CCc1nccc(-c2ccc(NC3(C(=O)O)CCOCC3)cc2COC2CC2)c1F [Compound 339]
< 5.00	< 6.00	COc1cc(OC)cc(-c2ccc(NC3(C(=O)O)CCOCC3)cc2COC2COc3ccccc32)c1 (single isomer, unassigned) [Compound 159]
7.08	> 7.00	COc1cc(-c2ccc(NC3(C(=O)O)CCOCC3)cc2COCC2CC2)c(F)c(OC)c1C [Compound 364]
8.06	> 7.00	CCOc1cncc(-c2ccc(NC3(C(=O)O)CCOCC3)cc2COC2CC3CC3C2)c1C (stereo not shown) [Compound 416, 4-{[3-({bicyclo[3.1.0]hexan-3-yloxy}methyl)-4-(5-ethoxy-4-methylpyridin-3-yl)phenyl]amino}oxane-4-carboxylic acid]

pIC50 [1]	pIC50 [2]	Structure (SMILES)
8.25	< 6.00	O=C(O)C1(Nc2ccc(-c3cccc(OC4CC4)c3)c(COC3CC3)c2)CCOCC1 [Compound 304]
5.88	< 6.00	COc1cc(OC)nc(-c2c(C)cc(NC3(C(=O)O)CCOCC3)cc2COC2CCCC2)n1 [Compound 178]
7.27	> 7.00	COc1cc(-c2c(C)cc(NC3(C(=O)O)CCOCC3)cc2COC2CCCC2)nc(OC)c1C [Compound 253, 4-((3-((cyclopentyloxy)methyl)-4-(4,6-dimethoxy-5-methylpyridin-2-yl)-5-methylphenyl)amino)tetrahydro-2H-pyran-4-carboxylic acid]
7.87	> 7.00	COc1cc(-c2ccc(NC3(C(=O)O)CC3)cc2COC2Cc3ccccc3C2)cc(OC)c1C(C)=O [Compound 121, 1-({4′-acetyl-2-[(2,3-dihydro-1H-inden-2-yloxy)methyl]-3′,5′-dimethoxy-[1,1′-biphenyl]-4-yl}amino)cyclopropane-1-carboxylic acid]
5.49	< 6.00	COc1cc2c(c(-c3ccc(NC4(C(=O)O)CCOCC4)cc3COC3CCCC3)c1)OCO2 [Compound 199]
7.18	> 7.00	CCOc1cncc(-c2ccc(OC3(C(=O)O)CCOCC3)cc2COC2CC2)c1C(F)F [Compound 415]
6.75	6.00 to 7.00	CCOc1cncc(-c2c(C)cc(NC3(C(=O)O)CCOCC3)cc2COC2CC2)c1C(F)F [Compound 410]
6.33	6.00 to 7.00	CCOc1cc(OC)cc(-c2ccc(C3(C(=O)O)CC3)cc2COC2CCCC2)c1F [Compound 391]
7.26	> 7.00	COc1cc(-c2ccc(NC3(C(=O)O)CC(F)(F)C3)cc2COC2CC2)c(F)c(OC)c1C [Compound 366]
7.14	> 7.00	COc1cc(-c2ccc(NC3(C(=O)O)CCOCC3)cc2COCC(C)C)c(C)c(OC)c1C [Compound 397]
< 5.00	< 6.00	COc1cc(O)nc(-c2c(C)cc(NC3(C(=O)O)CCOCC3)cc2COC2CCCC2)c1 [Compound 164]
7.56	> 7.00	CCOc1c(C)c(OC)cc(-c2ccc(NC3(C(=O)O)CCOCC3)cc2COCC(C)C)c1F [Compound 396]
6.49	6.00 to 7.00	COc1cc(-c2ccc(NC3(C(=O)O)C[C@@H](C)O[C@@H](C)C3)cc2COC2CCCC2)c(F)c(OC)c1C (stereo partly drawn) [Compound 225, (2R,6S)-4-((2-((cyclopentyloxy)methyl)-2′-fluoro-3′,5′-dimethoxy-4′-methyl-[1,1′-biphenyl]-4-yl)amino)-2,6-dimethyltetrahydro-2H-pyran-4-carboxylic acid]
8.12	> 7.00	CCCCOCc1cc(NC2(C(=O)O)CCOCC2)ccc1-c1cc(OC)cc(OC)c1Cl [Compound 402]
7.40	> 7.00	COc1cc(C2CC2)cc(-c2ccc(NC3(C(=O)O)CCOCC3)cc2COC2CCCC2)c1F [Compound 251]
8.28	> 7.00	CCOc1cncc(-c2ccc(NC3(C(=O)O)CCOCC3)cc2COC2Cc3ccccc3C2)c1C [Compound 411, 4-({3-[(2,3-dihydro-1H-inden-2-yloxy)methyl]-4-(5-ethoxy-4-methylpyridin-3-yl)phenyl}amino)oxane-4-carboxylic acid]
7.40	> 7.00	COc1cc(OC)c(C)c(-c2c(F)cc(NC3(C(=O)O)CCOCC3)cc2COC2CCCC2)c1 [Compound 180]
8.10	> 7.00	CCOc1cc(OC)cc(-c2ccc(NC3(C(=O)O)CCOCC3)cc2COCC(C)C)c1F [Compound 395]
7.08	6.00 to 7.00	COc1cc(-c2cc(F)c(NC3(C(=O)O)CCOCC3)cc2COC2CCCC2)c(F)c(OC)c1C [Compound 243]
8.24	> 7.00	COc1cc(-c2ccc(NC3(C(=O)O)CCOCC3)cc2COC2CC2)c(Cl)c(OC)c1C [Compound 293]
7.70	> 7.00	COc1cc(-c2ccc(NC3(C(=O)O)CCOCC3)cc2CCC2(C)Oc3ccccc3O2)cc(OC)c1C [Compound 132, 4-({3′,5′-dimethoxy-4′-methyl-2-[2-(2-methyl-1,3-benzodioxol-2-yl)ethyl]-[1,1′-biphenyl]-4-yl}amino)oxane-4-carboxylic acid]
7.67	> 7.00	COc1cc(-c2ccc(NC3(C(=O)O)CCOCC3)cc2COC2CCCC2)c(F)c(OC)c1C(C)=O [Compound 271]
7.23	> 7.00	CCOC1CC(Nc2ccc(-c3cc(OC)c(C)c(OC)c3C)c(COC3CCCC3)c2)(C(=O)O)C1 (stereo not shown) [Compound 214]
